Source: patent US20250250545A1, “MSCS AND EXTRACELLULAR VESICLES” (EXOSTEM BIOTEC LTD., priority 2021, published 2025)

Test system: AD-MSCs
Test: MyoD reporter (luciferase) in AD-MSCs, myogenic differentiation
Assay type: cell-based, human
Conditions: 10^8 EVs per ml, with or without IGF, HGF, PDGF, versus untreated control
Procedure: The effects of muscle cell derived extracellular vesicles (EVs) on the myogenic differentiation of MSCs was analyzed using a myoD reporter tagged to luciferase. Human satellite cells, myotubes and fibroblasts were grown in culture and EVs were isolated from each. MSCs were isolated from adipose tissue (AD-MSCs) and were transfected with the MyoD reporter. The cells grown in culture were treated with EVs (10^8/ml) for 5 days and the luciferase activity was determined. […] Thus, the vesicles from these two cell types are effective at inducing myogenic differentiation.
Next, EVs were compared to the use of growth factors and the effect of combining EVs with growth factors on myogenic differentiation was tested. The same MyoD reporter was employed and MSCs were cultured with 10^8 EVs (from satellite cells or fibroblasts) per ml of culture media. A no EV control was also performed. The EVs were also added in the presence of three different growth factors, IGF, HGF and PDGF or in the combined presence of all three growth factors. […]
Finally, human primary myotubes were growth in culture and EVs and membrane-bound vesicles (MBVs) were harvested every 3 days. […] The vesicles were added to the culture of MSCs (adipose derived, AD; or chorionic placenta derived, CH) at a concentration of 10^8 per ml of culture and myogenic differentiation was again monitored with a MyoD reporter. […]

In the case of PDGF, the MyoD reporter activity is reported as “less than a doubling of reporter activity”.
HGF: hepatocyte growth factor was tested, and the MyoD reporter activity was “less than a doubling of reporter activity”.
